Source: publication PMC5840146, “Structure-Activity Relationship Analysis of 3-Phenylcoumarin-Based Monoamine Oxidase B Inhibitors” (Frontiers in Chemistry, 2018)
Like-named read-outs stand apart in the source and are kept apart here.

What was measured:
MAO-B [1] = target: T1, MAO-B (Homo sapiens, UniProt P27338); settings: cited from earlier work; for pIC50: MAO-B; for IC50: read-out: MAO-B inhibition IC50
T1 construct: purchased Sigma-Aldrich
T1 sequence (P27338 1-520): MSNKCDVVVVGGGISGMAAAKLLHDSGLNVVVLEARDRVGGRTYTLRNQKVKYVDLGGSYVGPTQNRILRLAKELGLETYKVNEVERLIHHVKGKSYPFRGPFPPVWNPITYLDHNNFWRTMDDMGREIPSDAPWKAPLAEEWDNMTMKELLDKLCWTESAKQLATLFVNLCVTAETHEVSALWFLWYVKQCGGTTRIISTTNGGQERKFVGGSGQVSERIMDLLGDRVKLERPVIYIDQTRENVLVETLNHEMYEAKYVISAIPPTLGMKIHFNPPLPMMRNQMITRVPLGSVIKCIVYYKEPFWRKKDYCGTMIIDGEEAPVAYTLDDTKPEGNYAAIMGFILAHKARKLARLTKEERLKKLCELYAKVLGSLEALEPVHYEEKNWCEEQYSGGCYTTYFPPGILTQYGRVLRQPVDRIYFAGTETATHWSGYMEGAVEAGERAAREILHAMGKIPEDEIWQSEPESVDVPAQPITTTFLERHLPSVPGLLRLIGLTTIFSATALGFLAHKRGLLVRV

MAO-B [2] = target: T1, MAO-B; test: MAO-B inhibition of prior 3-phenylcoumarins (literature data); type: biochemical; settings: LiPE = pIC50 - QPlogPo/w, literature IC50
[3] = from literature IC50 ref Matos et al., 2011a
[4] = prior 3-phenylcoumarins ref Matos et al., 2011a
[5] = from literature IC50 ref Matos et al., 2011b
[6] = prior 3-phenylcoumarins ref Matos et al., 2011b
[7] = from literature IC50 ref Matos et al., 2009, 2011a
[8] = prior 3-phenylcoumarins ref Matos et al., 2009, 2011a
[9] = from literature IC50 ref Matos et al., 2010
[10] = prior 3-phenylcoumarins ref Matos et al., 2010
[11] = from literature IC50 ref Serra et al., 2012
[12] = prior 3-phenylcoumarins ref Serra et al., 2012

SMILES | LiPE (MAO-B [2]) | pIC50 (MAO-B [1]; [3]) | IC50 (MAO-B [1]; [4]) | further results
O=c1oc2ccccc2cc1-c1ccccc1 [CHEMBL510349] | 1.47 | – | – | pIC50 (MAO-B [1]; from literature IC50 ref Viña et al., 2012b): 4.93; IC50 (MAO-B [1]; prior 3-phenylcoumarins ref Viña et al., 2012b): 11.8 µM
Cc1ccc2oc(=O)c(-c3ccc(O)cc3)cc2c1 [CHEMBL577099] | 4.06 | – | – | –
COc1ccc(-c2cc3cc(C)ccc3oc2=O)cc1OC [CHEMBL1835230] | 5.04 | 8.56 | 0.00273 µM | –
O=c1oc2c(O)cc(Br)cc2cc1-c1ccc(O)cc1 [CHEMBL1777849] | 2.46 | – | – | pIC50 (MAO-B [1]; [5]): 4.77; IC50 (MAO-B [1]; [6]): 16.9 µM
Cc1cccc(-c2cc3cc(C)ccc3oc2=O)c1 [CHEMBL1835229] | 4.09 | 7.82 | 0.015 µM | –
COc1ccc2oc(=O)c(-c3cccc(C)c3)cc2c1 [CHEMBL1835223] | 4.30 | 7.77 | 0.0171 µM | –
Cc1ccc(-c2cc3cc(O)ccc3oc2=O)cc1 [CHEMBL1835225] | 4.42 | 7.17 | 0.0671 µM | –
COc1ccc(-c2cc3cc(C)ccc3oc2=O)cc1 [CHEMBL572233] | 4.41 | – | – | pIC50 (MAO-B [1]; [7]): 7.88; IC50 (MAO-B [1]; [8]): 0.0131 µM
COc1cc(OC)c(Br)c(-c2cc3cc(C)ccc3oc2=O)c1 [CHEMBL1835233] | 0.20 | 4.27 | 54 µM | –
COc1cc(OC)cc(-c2cc3cc(C)ccc3oc2=O)c1 [CHEMBL1783715] | 4.52 | – | – | pIC50 (MAO-B [1]; [7]): 8.05; IC50 (MAO-B [1]; [8]): 0.00898 µM
COc1cc(-c2cc3cc(C)ccc3oc2=O)cc(OC)c1OC [CHEMBL1783716] | 3.18 | – | – | pIC50 (MAO-B [1]; [7]): 6.79; IC50 (MAO-B [1]; [8]): 0.161 µM
COc1cc(-c2cc3cc(C)ccc3oc2=O)ccc1Br [CHEMBL1835232] | 4.41 | 8.49 | 0.00325 µM | –
Cc1ccc2oc(=O)c(-c3cccc(O)c3)cc2c1 [CHEMBL1835326] | 3.44 | 6.19 | 0.65 µM | –
COc1cccc(-c2cc3cc(C)ccc3oc2=O)c1 [CHEMBL570731] | 5.64 | 9.10 | 0.0008 µM | –
Cc1cc(Br)c2oc(=O)c(-c3ccccc3)cc2c1 [CHEMBL1221930] | 0.95 | – | – | pIC50 (MAO-B [1]; [9]): 4.96; IC50 (MAO-B [1]; [10]): 11.1 µM
Cc1ccc2oc(=O)c(-c3ccccc3O)cc2c1 [CHEMBL1835327] | 4.08 | 6.92 | 0.12 µM | –
COc1ccc(-c2cc3cc(Br)cc(OC)c3oc2=O)cc1 [CHEMBL1777845] | 5.09 | – | – | pIC50 (MAO-B [1]; [5]): 8.87; IC50 (MAO-B [1]; [6]): 0.00135 µM

SMILES | LiPE (MAO-B [2]) | pIC50 (MAO-B [1]; [3]) | IC50 (MAO-B [1]; [4]) | further results
COc1cc(-c2cc3cc(C)cc(Br)c3oc2=O)cc(OC)c1OC [CHEMBL1221982] | 1.09 | – | – | pIC50 (MAO-B [1]; [9]): 5.31; IC50 (MAO-B [1]; [10]): 4.89 µM
Cc1ccc(-c2cc3cc(OC4CCCC4)ccc3oc2=O)cc1 [CHEMBL1835227] | 0.14 | 4.84 | 14.5 µM | –
COc1ccc(-c2cc3cc(C)cc(Br)c3oc2=O)cc1 [CHEMBL1221980] | 1.42 | – | – | pIC50 (MAO-B [1]; [9]): 5.49; IC50 (MAO-B [1]; [10]): 3.23 µM
COc1ccc(-c2c(O)c3ccccc3oc2=O)cc1Cl [CHEMBL1934675] | 1.85 | – | – | –
COc1ccc2oc(=O)c(-c3ccc(C)cc3)cc2c1 [CHEMBL1835224] | 5.35 | 8.82 | 0.00152 µM | –
CC(=O)COc1cccc(-c2cc3cc(C)ccc3oc2=O)c1 [CHEMBL1835328] | 3.80 | 6.74 | 0.18 µM | –
CC(=O)COc1ccc2oc(=O)c(-c3ccc(C)cc3)cc2c1 [CHEMBL1835226] | 2.32 | 5.26 | 5.52 µM | –
COc1ccc(-c2c(O)c3cc(Cl)ccc3oc2=O)cc1Cl [CHEMBL1934677] | 1.88 | – | – | pIC50 (MAO-B [1]; [11]): 5.55; IC50 (MAO-B [1]; [12]): 2.79 µM
Cc1ccc2oc(=O)c(-c3ccccc3Br)cc2c1 [CHEMBL1221929] | 1.46 | – | – | pIC50 (MAO-B [1]; [9]): 5.37; IC50 (MAO-B [1]; [10]): 4.3 µM
COc1ccc(-c2c(O)c3cc(C)ccc3oc2=O)cc1 [CHEMBL1934673] | 1.53 | – | – | pIC50 (MAO-B [1]; [11]): 4.49; IC50 (MAO-B [1]; [12]): 32 µM
COc1cc(Br)cc2cc(-c3ccccc3)c(=O)oc12 [CHEMBL1777814] | 3.35 | – | – | pIC50 (MAO-B [1]; [5]): 7.08; IC50 (MAO-B [1]; [6]): 0.0835 µM
O=c1oc2c(O)cc(Br)cc2cc1-c1ccccc1 [CHEMBL1777847] | 1.45 | – | – | pIC50 (MAO-B [1]; [5]): 4.51; IC50 (MAO-B [1]; [6]): 30.9 µM
COc1cc(OC)cc(-c2cc3cc(C)cc(Br)c3oc2=O)c1 [CHEMBL1221981] | 1.02 | – | – | pIC50 (MAO-B [1]; [9]): 5.15; IC50 (MAO-B [1]; [10]): 7.12 µM
COc1ccc(-c2c(O)c3cc(C)ccc3oc2=O)cc1Cl [CHEMBL1934676] | 0.88 | – | – | pIC50 (MAO-B [1]; [11]): 4.37; IC50 (MAO-B [1]; [12]): 42.7 µM
COc1ccc(-c2c(O)c3ccccc3oc2=O)cc1 [CHEMBL1917495] | 1.49 | – | – | pIC50 (MAO-B [1]; [11]): 4.16; IC50 (MAO-B [1]; [12]): 69.6 µM
COc1ccc(-c2cc3cc(C)ccc3oc2=O)cc1Br [CHEMBL1835231] | 5.05 | 9.13 | 0.00074 µM | –
Cc1ccc2oc(=O)c(-c3ccccc3)cc2c1 [CHEMBL1783714] | 3.08 | – | – | pIC50 (MAO-B [1]; from literature IC50 ref Matos et al., 2009, 2011a, Viña et al., 2012b): 6.55; IC50 (MAO-B [1]; prior 3-phenylcoumarins ref Matos et al., 2009, 2011a, Viña et al., 2012b): 0.284 µM
